Test results reported in KR20180060184A, “Ccsp-2와 특이적으로 결합하는 펩타이드 및 이의 용도” (재단법인 아산사회복지재단, priority 2016, dated 2018).
Residues, ends and D or L forms follow the SMILES beside them.

The compounds below were run against T1, CCSP-2 (Homo sapiens, UniProt Q5GFL6) (assay: Phage display biopanning on purified CCSP-2 and sequencing of selected clones). Details: after 4 rounds of panning on CCSP-2.
T1 construct: His tag; made in house; host or cells: CCSP-2-overexpressing HeLa cell line (provided by Case Western Reserve University); the secreted protein was captured from the conditioned medium on Ni-NTA agarose
T1 sequence (Q5GFL6 24-755): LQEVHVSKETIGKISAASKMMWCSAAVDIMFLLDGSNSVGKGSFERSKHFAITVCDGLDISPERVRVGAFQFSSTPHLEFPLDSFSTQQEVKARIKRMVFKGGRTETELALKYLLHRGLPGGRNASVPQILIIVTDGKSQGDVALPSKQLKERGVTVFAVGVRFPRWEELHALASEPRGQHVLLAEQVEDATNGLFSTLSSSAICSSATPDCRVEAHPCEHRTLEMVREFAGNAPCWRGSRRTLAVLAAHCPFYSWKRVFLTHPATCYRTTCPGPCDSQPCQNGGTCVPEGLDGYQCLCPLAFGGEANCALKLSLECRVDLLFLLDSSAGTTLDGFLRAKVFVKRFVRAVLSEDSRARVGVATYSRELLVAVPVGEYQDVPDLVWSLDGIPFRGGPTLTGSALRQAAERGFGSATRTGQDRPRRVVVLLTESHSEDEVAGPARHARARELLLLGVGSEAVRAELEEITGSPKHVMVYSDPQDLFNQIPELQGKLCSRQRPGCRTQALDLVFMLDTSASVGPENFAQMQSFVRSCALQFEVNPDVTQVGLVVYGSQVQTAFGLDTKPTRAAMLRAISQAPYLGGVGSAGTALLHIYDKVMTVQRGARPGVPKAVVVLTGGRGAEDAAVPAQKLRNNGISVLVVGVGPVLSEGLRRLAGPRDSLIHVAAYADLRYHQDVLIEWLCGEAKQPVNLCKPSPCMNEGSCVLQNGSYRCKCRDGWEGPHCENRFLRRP
Format: binding

Compound	빈도 (frequency among the 56 sequences, percent)
WWNPLRP [MSJ10]	12.5%
NTGSPYE [MSJ1]	16.1%

What follows are compounds tested against T2, CCSP-2 단백질 (Homo sapiens, UniProt Q5GFL6) (assay: Fluorescence correlation spectroscopy (FCS), dissociation constant with CCSP-2 protein). Details: (peptide)-(GGGSK)-FITC-NH2 conjugate; CCSP-2 0-300 uM; Fig. 5; read-out: 해리상수 (Dissociation constant, Kd).
T2 sequence (Q5GFL6 24-755): T1 sequence (Q5GFL6 24-755)
Format: binding

Compound	Kd
N=C(N)NCCC[C@H](NC(=O)[C@H](Cc1ccccc1)NC(=O)[C@H](CCCCN)NC(=O)[C@H](CO)NC(=O)[C@H](Cc1ccccc1)NC(=O)[C@@H](N)CCC(=O)O)C(=O)N[C@@H](CO)C(=O)O [MSJ2, EFSKFRS] (H-EFSKFRS-OH)	55 µM
CC(C)C[C@H](NC(=O)[C@H](CCCCN)NC(=O)[C@@H](N)CC(C)C)C(=O)NCC(=O)N[C@@H](CCC(=O)O)C(=O)N[C@@H](CCCCN)C(=O)N[C@@H](Cc1c[nH]c2ccccc12)C(=O)O [MSJ6, LKLGEKW] (H-LKLGEKW-OH)	62 µM
N=C(N)NCCC[C@H](NC(=O)[C@H](CC(N)=O)NC(=O)[C@H](Cc1ccccc1)NC(=O)[C@H](CO)NC(=O)[C@H](CO)NC(=O)[C@H](Cc1ccc(O)cc1)NC(=O)CN)C(=O)O [MSJ11, GYSSFNR] (H-GYSSFNR-OH)	61 µM
CSCC[C@H](N)C(=O)N[C@@H](CO)C(=O)N[C@H](C(=O)NCC(=O)N[C@@H](CC(C)C)C(=O)N[C@@H](CO)C(=O)N[C@@H](CO)C(=O)O)[C@@H](C)O [MSJ3, MSTGLSS] (H-MSTGLSS-OH)	25 µM
